Data taken from patent US7723063B2, “Methods for measuring levels of bioactive human hepcidin” (Intrinsic Lifesciences, priority 2004, dated 2010).
Converted amounts (≈) assume the structure as drawn. Ends that are not written are not given here. Peptide text beside a SMILES is read from it.

Legend:
Yersinia enterocolitica = assay: Microbicidal kinetics; assay type: cell-based
Method: Microbicidal Kinetics. An experiment was conducted to examine the microbicidal kinetics of bass hepcidin and to compare its killing activity to another bass antimicrobial peptide, moronecidin. Moronecidin is a 22 amino acid, linear, amphipathic α-helical peptide which was originally co-purified from the gill of HSB with hepcidin. […] We compared the killing kinetics of hepcidin and moronecidin against Y enterocolitica at 30 min intervals over a 3 h time period using 2× their MIC concentrations for this organism (44 and 10 μM; FIG. 12). The bactericidal activities of the peptides were assessed by plating cultures and counting CFUs after overnight incubation at 37° C.

spores of A. niger = assay: Germination and fungicidal assay; assay type: cell-based; details: 48 hr exposure, re-culture in fresh medium
Method: Germination and Fungicidal Assay. Spores of A. niger were harvested and resuspended in sterile water containing 0.05% TWEEN-80™, and the concentration adjusted to approximately 10^8 spores per ml. Spores were diluted in half-strength PDB containing 16 μM chloramphenicol to a final concentration of 10^5 spores per ml. Ninety μl of the suspension was placed in sterile flat-bottomed polystyrene 96-well plates with 10 μl of serial dilutions of peptide (440 μM, 220 μM, 110 μM, 55 μM), in water. Germination of spores was allowed to proceed for 2 days at 30° C. in the dark, after which hyphae density was measured by absorbance at 600 nm. After 2 days of incubation, the contents of wells showing no germination were centrifuged for 3 min at 5000 rpm, resuspended in 50 μl of fresh PDB media, and triplicate aliquots spotted onto PDB agar plates. Plates were placed at 30° C. for 3 days to monitor germination of hyphae. The absence of germination indicated fungicidal activity.
Fungicidal Activity. […] After 48 hr exposure to the respective peptides, spores were removed and cultured in fresh medium and examined 48 h later for growth.

S. iniae = system: S. iniae
Method: (§1) Antimicrobial Synergism Studies. Synergism between synthetic bass hepcidin and moronecidin was tested in checkerboard liquid growth inhibition assays. In brief, two-fold serial dilutions of each peptide were made in water, and 10 μl of the solution added to the bottom of the wells of a 96-well plate. Ninety μl of exponential phase bacterial cultures (OD600˜0.2) were freshly diluted in culture media to ˜2×10^5 CFU ml^−1 and added to peptide solutions. Controls consisted of wells with the appropriate volume and concentration of each peptide alone, or of water. Bacterial viability was assayed at 2 h by plating aliquots of the bacterial suspension for CFU enumeration. The bacterial suspensions were further incubated overnight at 37° C. and bacterial growth was monitored by optical density at 600 nm for determination of MIC. Synergistic activity was quantify as fractional inhibition concentration (FIC) index=([A]/MICA)+([B]/MICB), where MICA and MICB are the MICs of the peptides alone and [A] and [B] are the MICs of A and B when used together.
(§2) To test for synergism between the two antimicrobial peptides in vitro, we conducted liquid growth inhibition/killing experiments with a Gram-positive (S. iniae) and a Gram-negative bacterium (Y enterocolitica) using varying concentrations of the two synthetic peptides. The bacteria were cultured in the presence of synthetic bass hepcidin and moronecidin and plated after 2 h incubation at 37° C. for determination of CFU (FIG. 14).

Y. enterocolitica = system: Y. enterocolitica
Method: as §1, §2

[1] = Direct binding to ferric iron by NMR
From the text: Instead, hepcidin has shown to have the capability of exerting its effects on the innate immune response of teleosts through a combination of activities. The bass model employed in these studies provides a powerful approach to further elucidate hepcidin function(s), including it potential role in hypoferremia in teleosts.

[2] = Aggregation of bioactive hepcidin in phosphate buffered saline; assay type: physicochemical; details: pH 7.4
From the text: Development of bass hepcidin enzyme/ligand conjugates for ELISA. We took advantage of the only available (N-terminal) primary amine group present in refolded bass hepcidin for conjugation to KLH using EDC (1-Ethyl-3-[3-Dimethylamino-propyl] carbodiimide HCl) and DSS (Disuccinimidyl suberate) chemistries. These approaches were very difficult to develop and apply to production of hepcidin conjugates due to hepcidin's inherent solubility issues in higher pH coupling buffers. […] We have encountered significant issues when trying to solubilize hepcidin at the higher concentrations (1-3 mg ml^−1) in standard coupling buffers desirable for production of high activity, soluble hepcidin-HRP conjugates for ELISA.

HSB erythrocytes = assay: Hemolytic activity; assay type: cell-based, striped bass
Method: Hemolytic activity. Freshly packed striped bass erythrocytes (3 ml) isolated from young fingerlings (˜30 g) and adult fish (˜300 g) were washed with phosphate-buffered saline (PBS; pH 7.4) until the supernatant was colorless and resuspended in PBS (30 ml) supplemented with glucose (0.2%, w/v). Synthetic bass hepcidin (10 μl of 880-55 μM) was added to 90 μl of a 1% suspension of washed erythrocytes in microcentrifuge tubes. Triplicate samples were incubated for 30, 90, 180, and 240 min at 37° C. then centrifuged for 10 min at 3500 rpm. Supernatant from the erythrocyte suspension (70 μl) was placed in a microtiter plate and optical density at 405 nm determined. The percentage of hemolysis in hepcidin-treated erythrocytes was expressed relative to hemolysis obtained with a control erythrocyte suspension treated with 0.1% sodium dodecyl sulphate (SDS, 100% hemolysis).
Hemolytic Activity. The hemolytic activity of bass hepcidin was tested with erythrocytes from HSB. […] Greater than 98% of the bass erythrocytes exposed to 44 μM hepcidin for 3 h at 37° C. remained intact. This exposure corresponds to a time point when 96% of Y. enterocolitica exposed to 44 μM hepcidin have been killed (see FIG. 6, Panel A). After 4 h incubation with 44 μM hepcidin, more than 97% of the erythrocytes remained intact. No hemolysis was observed after 4 h at hepcidin concentrations of 11 μM and lower.

[3] = Serum hepcidin after IP injection of synthetic bass hepcidin, competitive ELISA; assay type: in vivo; details: HSB
Method: Competition ELISA Protocol. A high-binding 96-well microplate (Corning, Inc., Cat. No. 3590) was coated with 100 μl of a 1:5,000 dilution of affinity-purified rabbit anti-HSB hepcidin antibody (0.68 mg/ml) in carbonate-bicarbonate coating buffer pH 9.6 (Sigma-Aldrich Corp., Cat. No. C-3041). One well contained 100 μl carbonate-bicarbonate coating buffer and no antibody. The plate was covered and placed at 4°C. Following a suitable period of incubation at 4° C., the plate was washed with three, 300 μl volumes of PBS-T (PBS containing 0.05% TWEEN-20™). Next, the plate was blocked with 250 μl of a 2% (w/v) dry milk solution in PBS, covered, and incubated for one hour at RT, shaking at 150 rpm. Samples and standard curves were prepared in a separate 96-well plate. Serum, plasma, and urine samples were diluted with PBS diluted to be within the working range of the standard curve. An aliquot of biotinylated AEEAc-derivatized hepcidin (0.21 mg/ml diluted 1:2000) was added to each well to give a final biotinylated hepcidin concentration of 94.5 ng/ml. From each well of the sample/standard curve dilution plate, 100 μl was transferred to the antibody coated and blocked plate. The plate was covered and incubated at RT, shaking at 150 rpm, for 1 hour to allow competitive binding to occur. […] Absorbance at 450 nm was determined using a THERMOMAX™ microplate reader with SOFTMAX PRO™ software (Molecular Devices). Data were analyzed using a spreadsheet program. […]
The data from these studies is separated by double lines. […] The second data set is from a field study Production Tank 32, where HSB without apparent clinical disease ‘Clinically Healthy’ and “Infected/Moribund” HSB were sampled and their serum hepcidin levels determined (Rows 4-5). […] The fourth experiment is a clinical where the indicated quantities of synthetic, bioactive, bass hepcidin was injected IP and measured in their serum at the indicated timepoints (Rows 8-11). […]

Compound: FFHHIFRGIVHVGKTIHKLVTG-NH2 (C-terminus assumed) [moronecidin, reference compound]
- MIC (E. coli): 5 µM
- Decrease in CFU (Yersinia enterocolitica; 10 μM (2× MIC), after 30 min): 90%
- Fungicidal concentration (spores of A. niger): 10 µM
- MIC (S. iniae): 2.5 µM
- MIC (Y. enterocolitica): 5 µM

Compound: CSCC[C@@H]1NC(=O)[C@H](CC(N)=O)NC(=O)[C@@H]2CCCN2C(=O)[C@@H]2CSSC[C@@H]3NC(=O)[C@H](C(C)C)NC(=O)CNC(=O)[C@H](CSSC[C@@H]4NC(=O)[C@H](CSSC[C@H](NC(=O)[C@H](CC(N)=O)NC4=O)C(=O)N2)NC(=O)[C@H](Cc2ccccc2)NC(=O)[C@H](CCCNC(=N)N)NC(=O)[C@@H](NC(=O)CN)CSSC[C@@H](C(=O)N[C@@H](CCCNC(=N)N)C(=O)N[C@@H](Cc2ccccc2)C(=O)O)NC3=O)NC(=O)CNC(=O)[C@H](CO)NC1=O [bass hepcidin] (HELM PEPTIDE1{G.C.R.F.C.C.N.C.C.P.N.M.S.G.C.G.V.C.C.R.F}$PEPTIDE1,PEPTIDE1,2:R3-19:R3|PEPTIDE1,PEPTIDE1,5:R3-8:R3|PEPTIDE1,PEPTIDE1,6:R3-15:R3|PEPTIDE1,PEPTIDE1,9:R3-18:R3$$$V2.0; N-terminus and C-terminus assumed)
- Direct binding to ferric iron [1]: no evidence
- Time required for 90% reduction of CFU from the original inoculum (Yersinia enterocolitica; 44 μM): Two and half hours
- State of cultures at 30 min (Yersinia enterocolitica; 22 and 44 μM): actually growing
- MIC (Yersinia enterocolitica; Y. enterocolitica): 22 µM (≈ 49.6 µg/mL)
- Concentration at which it readily aggregates [2]: 0.05 µg/mL
- Hemolytic activity (HSB erythrocytes; 5.5 μM, 30 min., 37° C.): 0% of controls
- Hemolytic activity (HSB erythrocytes; 5.5 μM, 90 min.): 0% of controls
- Hemolytic activity (HSB erythrocytes; 5.5 μM, 180 min.): 0% of controls
- Hemolytic activity (HSB erythrocytes; 11 μM, 30 min.): 0% of controls
- Hemolytic activity (HSB erythrocytes; 11 μM, 90 min.): 0% of controls
- Hemolytic activity (HSB erythrocytes; 11 μM, 180 min.): 0% of controls
- Hemolytic activity (HSB erythrocytes; 22 μM, 30 min.): 0% of controls
- Hemolytic activity (HSB erythrocytes; 22 μM, 90 min.): 0% of controls
- Hemolytic activity (HSB erythrocytes; 22 μM, 180 min.): 0.4 ± 0.15% of controls
- Hemolytic activity (HSB erythrocytes; 22 μM, 240 min.): 0.4 ± 0.4% of controls
- Hemolytic activity (HSB erythrocytes; 44 μM, 30 min.): 0% of controls
- Hemolytic activity (HSB erythrocytes; 44 μM, 90 min.): 0% of controls
- Erythrocytes remaining intact (HSB erythrocytes; 44 μM, 3 h, 37° C.): Greater than 98%
- Hemolytic activity (HSB erythrocytes; 44 μM, 180 min.): 1.4 ± 0.3% of controls
- Erythrocytes remaining intact (HSB erythrocytes; 44 μM, 4 h): more than 97%
- Hemolytic activity (HSB erythrocytes; 44 μM, 240 min.): 2.5 ± 1.2% of controls
- Hemolysis (HSB erythrocytes; 4 h, 11 μM and lower): No hemolysis
- level at 3 h ([3]; 50 ug, 50 μg IP): 39.3 µg/mL
- level at 3 h ([3]; 300 ug, 300 μg IP): 204 µg/mL
- level at 6 h ([3]; 2 × 300 μg IP (0 and 3 h), sampled 6 h): 230 µg/mL
- Fungicidal concentration (spores of A. niger): 44 µM
- Antimicrobial activity against S. iniae (S. iniae; 2 h incubation, concentrations as high as 88 μM): no detectable antimicrobial activity
